Measured values: patent publication US20260258051A1, “Camptothecin Compound, Preparation Method Therefor and Use Thereof” (SICHUAN KELUN-BIOTECH BIOPHARMACEUTICAL CO., LTD., priority 2022, published 2026)
Like-named read-outs stand apart in the source and are kept apart here.

How the values were obtained:
HCC1806 cells = assay: Inhibitory effect on HCC1806 cell proliferation; type: cell-based; conditions: Homo sapiens; HCC1806, 72 h incubation, Cell Counting-Lite 2.0
Experimental: (1) Cell plating: First, tumor cells HCC1806 were cultured with corresponding culture medium, the cells were digested with trypsin and centrifuged, then the cells were resuspended and counted, and the cells were adjusted to an appropriate concentration for plating.
(§1) Co-incubation of the compounds of the present invention and tumor cells: 90 μL of cell suspension was added to 96-well plates respectively. After cell adherence, 10 μL of bioactive molecules (compounds of the present invention) diluted with culture medium were added into the wells of the above plates, and incubated for 72 h.
(§2) In vitro cell viability detection: After the incubation, 50 μL of Cell Counting-Lite™ 2.0 reagent (Vazyme) was added to each well, shaken and mixed well in the dark, and reacted for 10 minutes before testing. Microplate reader (manufacturer: BMG, Model: PHERA Star-FS) was used for reading. The culture wells without cells were used as the background RLU, and the culture wells with cells but no compound were used as the cell control RLU. Cell inhibition rate=1−(sample RLU−background RLU)/(cell control RLU−background RLU)×100%. The half-inhibition concentration (IC50) of compound was calculated by fitting the curve according to the four-parameter model.

NCI-H358 cells = assay: Inhibitory effect on NCI-H358 cell proliferation; type: cell-based; conditions: Homo sapiens; NCI-H358, 72 h incubation, Cell Counting-Lite 2.0
Experimental: (1) Cell plating: First, tumor cells NCI-H358 were cultured with corresponding culture medium, the cells were digested with trypsin and centrifuged, then the cells were resuspended and counted, and the cells were adjusted to an appropriate concentration for plating.
as §1, §2

MDA-MB-231 cells = assay: Inhibitory effect on MDA-MB-231 cell proliferation; type: cell-based; conditions: Homo sapiens; MDA-MB-231, 72 h incubation, Cell Counting-Lite 2.0
Experimental: (1) Cell plating: First, tumor cells MDA-MB-231 were cultured with corresponding culture medium, the cells were digested with trypsin and centrifuged, then the cells were resuspended and counted, and the cells were adjusted to an appropriate concentration for plating.
as §1, §2

[1] = Permeability test in MDCK cell model; type: in vitro ADME; conditions: dog; for efflux ratio at 120 min, 2 μM: pH 7.4, 2.00 μM, Papp(B→A)/Papp(A→B), absence of P-gp inhibitor, read-out: Efflux ratio (ERa)
Experimental: (§3) The MDCK cell model was used to evaluate the permeability of the compounds, the LC-MS/MS method was used to determine the concentration of the substance to be tested, and the apparent permeability coefficient (Papp) and efflux ratio were calculated [Efflux ratio=Papp(B→A)/Papp(A→B)].
(§4) Complete culture medium: 10% fetal bovine serum and 1% penicillin/streptomycin were added to MEM culture medium.
(§5) Digestive solution: 0.05% trypsin-EDTA.
(§6) HBSS buffer: HBSS containing Ca^2+, Mg^2+.
(§7) Permeating solution: HBSS containing 10 mM Hepes, 4% BSA, pH 7.4.
(§8) Compound stock solution: a certain amount of the compound to be tested was weighed and formulated with DMSO to prepare a 10 mM stock solution.
(§9) MDCK cells (26th generation) in the logarithmic growth phase were digested and dispersed evenly with 0.05% trypsin-EDTA, and then inoculated into the Transwell chamber at 3*10^5 cells/cm^2, with 200 μL on the A side and 1000 μL on the B side. After inoculation, the medium was changed once every day and the culturing was carried out for 3 to 4 days.
(§10) The cell culture medium was discarded by pipetting, then washing was carried out three times with the permeating solution. 200 μL of permeating solution was added to A side and 1000 μL of permeating solution was added to B side. A voltage resistance meter was used to measure the cell transmembrane resistance (TEER). After the TEER value of the cells was measured, the permeating solution on both sides was discarded by pipetting, and the solution was added. After 120 minutes, 150 μL of samples were taken from A side and B side, respectively, and frozen at −80° C. before testing. Then, 10 μg/ml Fluorescent Yellow was added to A side. After incubation for 30 minutes, 100 μL of solution at B side was pipetted and added into a 96-well white plate. The fluorescence value was measured at the wavelengths of Ex=485 nm and Em=530 nm using a microplate reader, and the permeance was calculated (which was less than 1%).
(§11) 80 μL of the compound to be tested was taken, added to 320 μL of acetonitrile solution containing internal standard (30 ng/mL Tolbutamide), vortexed, and centrifuged for 10 min (4000 rpm, 4° C.), and the supernatant was taken for LC-MS/MS analysis.
(§12) Excel 2013 was used to calculate Papp values and Papp ratio of B side→A side to A side→B side, and the recovery rates of each Control Compound and the compound to be tested were calculated.
(§13) Apparent permeability coefficient (Papp) of compound was calculated according to the following formula:
(§14) C0 was the initial concentration (μM) of the drug to be tested at the donor, (dCr/dt)×Vr was the rate (μM/s) at which the drug to be tested appeared at the receiver, Vr was the solution volume (mL) at the receiver, and A was the surface area (cm^2) of polycarbonate membrane.
(§15) Evaluation criteria: Low permeability: Papp≤0.5 (×10^−6 cm/s) • Medium permeability: 0.5<Papp<2.5 (×10^−6 cm/s) • High permeability: Papp≥2.5 (×10^−6 cm/s)
(§16) Efflux ratio (ER) was calculated according to Papp:
(§17) [formula] • wherein, Papp(B→A) was the apparent permeability coefficient of the drug to be tested from the BL (baso-lateral) end to the AP (apical) end, and Papp (A→B) was the apparent permeability coefficient of the drug to be tested from the AP end to the BL end.
(§18) • Probably being an efflux transporter substrate (Probably): ERa≥2 and ERa/ERi>2 • Likely being an efflux transporter substrate (Likely): ERa≥2 • Unlikely or impossibly being an efflux transporter substrate (Poor or non): ERa<2 • wherein, ERi and ERa were the efflux ratios of the compound to be tested in the presence and absence of P-gp inhibitor, respectively.

MDCK cells = assay: Permeability test in MDCK cell model; type: in vitro ADME
Experimental: as §3, §4, §5, §6, §7, §8, §9, §10, §11, §12, §13, §14, §15, §16, §17, §18

MDA-MB-453 cells = assay: Inhibitory effect on MDA-MB-453 cell proliferation; type: cell-based; conditions: Homo sapiens; MDA-MB-453, 72 h incubation, Cell Counting-Lite 2.0
Experimental: (1) Cell plating: First, tumor cells MDA-MB-453 were cultured with corresponding culture medium, the cells were digested with trypsin and centrifuged, then the cells were resuspended and counted, and the cells were adjusted to an appropriate concentration for plating.
as §1, §2

NCI-N87 cells = assay: Inhibitory effect on NCI-N87 cell proliferation; type: cell-based; conditions: Homo sapiens, read-out: IC50 (nM), inhibitory activity on NCI-N87 cell proliferation
Experimental: (1) Cell plating: First, tumor cells NCI-N87 were cultured with corresponding culture medium, the cells were digested with trypsin and centrifuged, then the cells were resuspended and counted, and the cells were adjusted to an appropriate concentration for plating.
as §1, §2

HT29 cells = assay: Inhibitory effect on HT29 cell proliferation; type: cell-based; conditions: Homo sapiens, HT-29; HT29, 72 h incubation, Cell Counting-Lite 2.0
Experimental: (1) Cell plating: First, tumor cells HT29 were cultured with corresponding culture medium, the cells were digested with trypsin and centrifuged, then the cells were resuspended and counted, and the cells were adjusted to an appropriate concentration for plating.
as §1, §2

Jeko-1 cells = assay: Inhibitory effect on Jeko-1 cell proliferation; type: cell-based; conditions: Homo sapiens; Jeko-1, 72 h incubation, Cell Counting-Lite 2.0
Experimental: (1) Cell plating: First, tumor cells Jeko-1 were cultured with corresponding culture medium, the cells were resuspended and counted, and finally the cells were adjusted to an appropriate concentration for plating.
as §1, §2

[2] = pH 7.4, concentration 2.00 μM, 120 minutes, A to B, read-out: Papp A to B
[3] = pH 7.4, concentration 2.00 μM, 120 minutes, B to A, read-out: Papp B to A
[4] = NCI-N87, 72 h incubation, Cell Counting-Lite 2.0

| SMILES | IC50 (HCC1806 cells) [nM] | IC50 (NCI-H358 cells) [nM] | IC50 (MDA-MB-231 cells) [nM] | efflux ratio at 120 min, 2 μM [1] | Papp A→B at 120 min, 2 μM [1, 2] [×10⁻⁶ cm/s] | Papp B→A at 120 min, 2 μM [1, 3] [×10⁻⁶ cm/s] | Efflux transporter substrate evaluation from efflux ratio (MDCK cells; 2.00 μM) | Permeability class according to the Papp(A→B) results (MDCK cells; 2.00 μM) | IC50 (MDA-MB-453 cells) [nM] | IC50 (NCI-N87 cells; NCI-N87, 72 h) [nM] | IC50 (HT29 cells) [nM] | IC50 (Jeko-1 cells) [nM] | Papp A→B at 120 min, 2 μM ([1]; pH 7.4) [×10⁻⁶ cm/s] | Papp B→A at 120 min, 2 μM ([1]; pH 7.4) [×10⁻⁶ cm/s] | Permeability class according to the Papp(A→B) results (MDCK cells) | IC50 (NCI-N87 cells; [4]) [nM] |
| --- | --- | --- | --- | --- | --- | --- | --- | --- | --- | --- | --- | --- | --- | --- | --- | --- |
| CC[C@@]1(O)C(=O)OCc2c1cc1n(c2=O)Cc2c-1nc1cc(F)c(Cl)cc1c2CN [Compound 1-1, (S)-11-(aminomethyl)-9-chloro-4-ethyl-8-fluoro-4-hydroxy-1,12-dihydro-14H-pyrano[3′,4′:6,7]indolizino[1,2-b]quinolin-3,14(4H)-dione] | 1.23 | 25.7 | 3.55 | 1.41 | 2.59 | 3.65 | not efflux transporter substrates or were weak efflux transporter substrates | high-permeability | 291 | 8.59 | 1.07 |  |  |  |  |  |
| CC[C@@]1(O)C(=O)OCc2c1cc1n(c2=O)Cc2c-1nc1cc(F)c(Cl)cc1c2CNC(=O)C(O)C1CC1 (stereo partly shown) [Compound 2-4] | 1.08 | 53.4 |  |  |  |  |  |  | 95.6 | 5.72 | 5.99 | 0.34 |  |  |  |  |
| CC[C@@]1(O)C(=O)OCc2c1cc1n(c2=O)Cc2c-1nc1cc(F)c(Cl)cc1c2CNC(=O)C(O)C(F)(F)F (stereo partly drawn) [Compound 2-19, N—(((S)-9-chloro-4-ethyl-8-fluoro-4-hydroxy-3,14-dioxo-3,4, 12,14-tetrahydro-1H-pyrano[3′,4′:6,7]indolizino[1,2-b]quinolin-11-yl)methyl)-3,3,3-trifluoro-2-hydroxypropionamide] | 0.78 | 12.7 |  | 1.48 |  |  | not efflux transporter substrates or were weak efflux transporter substrates |  |  |  | 2.93 | 1.09 | 0.5 | 0.73 | low-permeability | 5.69 |
| C=CC(O)C(=O)NCc1c2c(nc3cc(F)c(Cl)cc13)-c1cc3c(c(=O)n1C2)COC(=O)[C@]3(O)CC (stereo partly drawn) [Compound 2-22, N—(((S)-9-chloro-4-ethyl-8-fluoro-4-hydroxy-3,14-dioxo-3,4, 12,14-tetrahydro-1H-pyrano[3′,4′:6,7]indolizino[1,2-b]quinolin-11-yl)methyl)-2-hydroxy-3-enamine] | 6.09 |  |  | 2.24 |  |  | could be efflux transporter substrates |  |  |  | 10.2 | 1.11 | 0.71 | 1.59 | medium-permeability | 7.27 |
| CC[C@@]1(O)C(=O)OCc2c1cc1n(c2=O)Cc2c-1nc1cc(F)c(C)c3c1c2[C@@H](NS(N)(=O)=O)CC3 [Compound 7-1, (1S,9S)-1-sulfamoylamido-9-ethyl-5-fluoro-9-hydroxy-4-methyl-1,2,3,9,12,15-hexahydro-10H,13H-benzo[de]pyranol[3′,4′:6,7]indolizino[1,2-b]quinolin-10,13-dione] | 3.67 | 268 | 31 |  |  |  |  |  | 50.2 | 31.3 | 10.1 | 4.07 |  |  |  |  |
| CC[C@@]1(O)C(=O)OCc2c1cc1n(c2=O)Cc2c-1nc1cc(F)c(C)cc1c2CN [Control Compound 1, reference compound] |  |  |  | 2.06 | 1.31 | 2.71 | could be efflux transporter substrates | medium-permeability |  |  |  |  |  |  |  |  |
| CC[C@@]1(O)C(=O)OCc2c1cc1n(c2=O)Cc2c-1nc1cc(F)c(C)cc1c2CNC(=O)CO [Control Compound 2, reference compound] |  |  |  | 28 | 0.01 | 0.4 | could be efflux transporter substrates | low-permeability |  |  |  |  |  |  |  |  |
| CC[C@@]1(O)C(=O)OCc2c1cc1n(c2=O)Cc2c-1nc1cc(F)c(C)c3c1c2[C@@H](NC(=O)CO)CC3 [Control Compound 3, reference compound] |  |  |  | 15.2 | 0.31 | 4.65 | could be efflux transporter substrates | low-permeability |  |  |  |  |  |  |  |  |
